Measured values from patent publication US20130274174A1, “THERAPEUTIC COMBINATION OF DAPTOMYCIN AND PROTEIN SYNTHESIS INHIBITOR ANTIBIOTIC, AND METHODS OF USE” (priority 2011, published 2013).
Converted amounts (≈) assume the structure as drawn. Like-named read-outs stand apart in the source and are kept apart here.

Experiments:
S. aureus MW2 (NRS123) = experiment: microbe, parasite or virus in culture; assay type: cell-based, Staphylococcus aureus; details: for MIC: Staphylococcus aureus
Procedure: (§1) S. aureus strains MW2 (NARSA collection clinical MRSA isolate, NRS123) and ATCC 33591 (MRSA strain from the American Type Culture Collection) were cultured on Mueller-Hinton II cation adjusted (MHA) medium in 90×90 mm square petri dishes. MHA containing ¼ of the MIC value of TR-700, TR-705, LZD, TIA, CLI, TET, or VAN, TMP/SMX throughout the plate and a continuous linear gradient of DAP across the plate was used to passage MW2. ATCC 33591 was passaged with ¼ of the MIC of a subset of these drugs (TR-700, TMP/SMX, and VAN). A DAP-only control passage group was included for both strains. DAP gradients were created by pouring two layers of media as previously described (Bryson, V., et al. 1952. Microbial selection. Science 116:45-51; Locke, J. B., et al., 2009. Antimicrob. Agents Chemother. 53:5265-5274). Following each passage the leading edge of growth (i.e., most resistant cells) was resuspended in phosphate buffered saline (PBS) to an absorbance of 0.30 OD600 and a 100 μl aliquot containing ˜3.0×10^7 CFU (colony-forming units) was spread on to the proceeding passage plate. The starting maximal DAP concentration was 2 μg/ml and was increased in two-fold increments when the leading edge of growth surpassed the half way point on the plate. A glycerol stock was made from the total cell population for each culture condition for each passage. Thirty serial passages were completed for each treatment group.

S. aureus ATCC 33591 = experiment: microbe, parasite or virus in culture; assay type: cell-based, Staphylococcus aureus; details: Staphylococcus aureus
Procedure: as §1

For `CN[C@H](CC(C)C)C(=O)N[C@H]1C(=O)N[C@@H](CC(N)=O)C(=O)N[C@H]2C(=O)N[C@H]3C(=O)N[C@H](C(=O)N[C@H](C(=O)O)c4cc(O)cc(O)c4-c4cc3ccc4O)[C@H](O)c3ccc(c(Cl)c3)Oc3cc2cc(c3O[C@@H]2O[C@H](CO)[C@@H](O)[C@H](O)[C@H]2O[C@H]2C[C@](C)(N)[C@H](O)[C@H](C)O2)Oc2ccc(cc2Cl)[C@H]1O` [VAN, vancomycin], the MIC (S. aureus MW2 (NRS123); NRS123, passage 0, NRS123 WT) was 1 µg/mL (≈ 0.69 µM), the MIC (S. aureus MW2 (NRS123); NRS123, passage 5, selection group DAP) was 2 µg/mL (≈ 1.38 µM) and the MIC (S. aureus MW2 (NRS123); NRS123, passage 5, selection group DAP + CLI) was 4 µg/mL. For the same compound, the MIC (S. aureus MW2 (NRS123); NRS123, passage 5, selection group DAP + LZD) was 4 µg/mL, the MIC (S. aureus MW2 (NRS123); NRS123, passage 5, selection group DAP + TET) was 2 µg/mL and the MIC (S. aureus MW2 (NRS123); NRS123, passage 5, selection group DAP + TIA) was 2 µg/mL. It also gave an MIC (S. aureus MW2 (NRS123); NRS123, passage 5, selection group DAP + TMP/SMX) of 8 µg/mL, an MIC (S. aureus MW2 (NRS123); NRS123, passage 5, selection group DAP + TR-700) of 2 µg/mL and an MIC (S. aureus MW2 (NRS123); NRS123, passage 5, selection group DAP + TR-705) of 4 µg/mL. It also gave an MIC (S. aureus MW2 (NRS123); NRS123, passage 5, selection group DAP + VAN) of 4 µg/mL, an MIC (S. aureus MW2 (NRS123); NRS123, passage 10, selection group DAP) of 4 µg/mL (≈ 2.76 µM) and an MIC (S. aureus MW2 (NRS123); NRS123, passage 10, selection group DAP + CLI) of 4 µg/mL. It also gave an MIC (S. aureus MW2 (NRS123); NRS123, passage 10, selection group DAP + LZD) of 8 µg/mL, an MIC (S. aureus MW2 (NRS123); NRS123, passage 10, selection group DAP + TET) of 2 µg/mL and an MIC (S. aureus MW2 (NRS123); NRS123, passage 10, selection group DAP + TIA) of 4 µg/mL. The MIC (S. aureus MW2 (NRS123); NRS123, passage 10, selection group DAP + TMP/SMX) was 8 µg/mL, the MIC (S. aureus MW2 (NRS123); NRS123, passage 10, selection group DAP + TR-700) was 2 µg/mL and the MIC (S. aureus MW2 (NRS123); NRS123, passage 10, selection group DAP + TR-705) was 2 µg/mL. The MIC (S. aureus MW2 (NRS123); NRS123, passage 10, selection group DAP + VAN) was 4 µg/mL, the MIC (S. aureus MW2 (NRS123); NRS123, passage 15, selection group DAP) was 8 µg/mL (≈ 5.52 µM) and the MIC (S. aureus MW2 (NRS123); NRS123, passage 15, selection group DAP + CLI) was 8 µg/mL. It also gave an MIC (S. aureus MW2 (NRS123); NRS123, passage 15, selection group DAP + LZD) of 8 µg/mL, an MIC (S. aureus MW2 (NRS123); NRS123, passage 15, selection group DAP + TET) of 0.5 µg/mL and an MIC (S. aureus MW2 (NRS123); NRS123, passage 15, selection group DAP + TIA) of 4 µg/mL. For the same compound, the MIC (S. aureus MW2 (NRS123); NRS123, passage 15, selection group DAP + TMP/SMX) was 8 µg/mL, the MIC (S. aureus MW2 (NRS123); NRS123, passage 15, selection group DAP + TR-700) was 2 µg/mL and the MIC (S. aureus MW2 (NRS123); NRS123, passage 15, selection group DAP + TR-705) was 2 µg/mL. For the same compound, the MIC (S. aureus MW2 (NRS123); NRS123, passage 15, selection group DAP + VAN) was 8 µg/mL, the MIC (S. aureus MW2 (NRS123); NRS123, passage 20, selection group DAP) was 8 µg/mL (≈ 5.52 µM) and the MIC (S. aureus MW2 (NRS123); NRS123, passage 20, selection group DAP + CLI) was 8 µg/mL. It also gave an MIC (S. aureus MW2 (NRS123); NRS123, passage 20, selection group DAP + LZD) of 8 µg/mL, an MIC (S. aureus MW2 (NRS123); NRS123, passage 20, selection group DAP + TET) of 1 µg/mL and an MIC (S. aureus MW2 (NRS123); NRS123, passage 20, selection group DAP + TIA) of 4 µg/mL. The MIC (S. aureus MW2 (NRS123); NRS123, passage 20, selection group DAP + TMP/SMX) was 8 µg/mL, the MIC (S. aureus MW2 (NRS123); NRS123, passage 20, selection group DAP + TR-700) was 2 µg/mL and the MIC (S. aureus MW2 (NRS123); NRS123, passage 20, selection group DAP + TR-705) was 2 µg/mL. The MIC (S. aureus MW2 (NRS123); NRS123, passage 20, selection group DAP + VAN) was 8 µg/mL, the MIC (S. aureus MW2 (NRS123); NRS123, passage 25, selection group DAP) was 4 µg/mL (≈ 2.76 µM) and the MIC (S. aureus MW2 (NRS123); NRS123, passage 25, selection group DAP + CLI) was 8 µg/mL. It also gave an MIC (S. aureus MW2 (NRS123); NRS123, passage 25, selection group DAP + LZD) of 8 µg/mL, an MIC (S. aureus MW2 (NRS123); NRS123, passage 25, selection group DAP + TET) of 1 µg/mL and an MIC (S. aureus MW2 (NRS123); NRS123, passage 25, selection group DAP + TIA) of 2 µg/mL. For the same compound, the MIC (S. aureus MW2 (NRS123); NRS123, passage 25, selection group DAP + TMP/SMX) was 8 µg/mL, the MIC (S. aureus MW2 (NRS123); NRS123, passage 25, selection group DAP + TR-700) was 2 µg/mL and the MIC (S. aureus MW2 (NRS123); NRS123, passage 25, selection group DAP + TR-705) was 2 µg/mL. It also gave an MIC (S. aureus MW2 (NRS123); NRS123, passage 25, selection group DAP + VAN) of 8 µg/mL, an MIC (S. aureus MW2 (NRS123); NRS123, passage 30, selection group DAP) of 2 µg/mL (≈ 1.38 µM) and an MIC (S. aureus MW2 (NRS123); NRS123, passage 30, selection group DAP + CLI) of 8 µg/mL. It also gave an MIC (S. aureus MW2 (NRS123); NRS123, passage 30, selection group DAP + LZD) of 2 µg/mL, an MIC (S. aureus MW2 (NRS123); NRS123, passage 30, selection group DAP + TET) of 1 µg/mL and an MIC (S. aureus MW2 (NRS123); NRS123, passage 30, selection group DAP + TIA) of 4 µg/mL. The MIC (S. aureus MW2 (NRS123); NRS123, passage 30, selection group DAP + TMP/SMX) was 8 µg/mL, the MIC (S. aureus MW2 (NRS123); NRS123, passage 30, selection group DAP + TR-700) was 2 µg/mL and the MIC (S. aureus MW2 (NRS123); NRS123, passage 30, selection group DAP + TR-705) was 2 µg/mL. The MIC (S. aureus MW2 (NRS123); NRS123, passage 30, selection group DAP + VAN) was 4 µg/mL, the MIC (S. aureus MW2 (NRS123); NRS123, read-out: DAP MIC by the end of the experiment (selection of DAP^ns strains), MW2, passaged with DAP alone or with co-selecting agent at ¼ MIC, CLSI breakpoint) was over 1 µg/mL and the “effect on preventing the emergence of DAP^ns” value (S. aureus MW2 (NRS123); co-selection at ¼ MIC, VAN: both backgrounds) was “had an effect on preventing the emergence of DAP^ns strains”. For the same compound, the DAP/VAN cross-resistance (S. aureus MW2 (NRS123); co-selection with VAN, both backgrounds) was “cross-resistance was observed”, the MIC (S. aureus ATCC 33591; ATCC33591, passage 0, ATCC 33591 WT) was 2 µg/mL (≈ 1.38 µM) and the MIC (S. aureus ATCC 33591; ATCC33591, passage 5, selection group DAP) was 4 µg/mL (≈ 2.76 µM). It also gave an MIC (S. aureus ATCC 33591; ATCC33591, passage 5, selection group DAP + TMP/SMX) of 4 µg/mL, an MIC (S. aureus ATCC 33591; ATCC33591, passage 5, selection group DAP + TR-700) of 2 µg/mL and an MIC (S. aureus ATCC 33591; ATCC33591, passage 5, selection group DAP + VAN) of 4 µg/mL. For the same compound, the MIC (S. aureus ATCC 33591; ATCC33591, passage 10, selection group DAP) was 4 µg/mL (≈ 2.76 µM), the MIC (S. aureus ATCC 33591; ATCC33591, passage 10, selection group DAP + TMP/SMX) was 8 µg/mL and the MIC (S. aureus ATCC 33591; ATCC33591, passage 10, selection group DAP + TR-700) was 4 µg/mL. The MIC (S. aureus ATCC 33591; ATCC33591, passage 10, selection group DAP + VAN) was 4 µg/mL, the MIC (S. aureus ATCC 33591; ATCC33591, passage 15, selection group DAP) was 4 µg/mL (≈ 2.76 µM) and the MIC (S. aureus ATCC 33591; ATCC33591, passage 15, selection group DAP + TMP/SMX) was 4 µg/mL. The MIC (S. aureus ATCC 33591; ATCC33591, passage 15, selection group DAP + TR-700) was 4 µg/mL, the MIC (S. aureus ATCC 33591; ATCC33591, passage 15, selection group DAP + VAN) was 4 µg/mL and the MIC (S. aureus ATCC 33591; ATCC33591, passage 20, selection group DAP) was 4 µg/mL (≈ 2.76 µM). The MIC (S. aureus ATCC 33591; ATCC33591, passage 20, selection group DAP + TMP/SMX) was 4 µg/mL, the MIC (S. aureus ATCC 33591; ATCC33591, passage 20, selection group DAP + TR-700) was 4 µg/mL and the MIC (S. aureus ATCC 33591; ATCC33591, passage 20, selection group DAP + VAN) was 8 µg/mL. It also gave an MIC (S. aureus ATCC 33591; ATCC33591, passage 25, selection group DAP) of 4 µg/mL (≈ 2.76 µM), an MIC (S. aureus ATCC 33591; ATCC33591, passage 25, selection group DAP + TMP/SMX) of 4 µg/mL and an MIC (S. aureus ATCC 33591; ATCC33591, passage 25, selection group DAP + TR-700) of 4 µg/mL. It also gave an MIC (S. aureus ATCC 33591; ATCC33591, passage 25, selection group DAP + VAN) of 8 µg/mL, an MIC (S. aureus ATCC 33591; ATCC33591, passage 30, selection group DAP) of 4 µg/mL (≈ 2.76 µM) and an MIC (S. aureus ATCC 33591; ATCC33591, passage 30, selection group DAP + TMP/SMX) of 4 µg/mL. It also gave an MIC (S. aureus ATCC 33591; ATCC33591, passage 30, selection group DAP + TR-700) of 2 µg/mL and an MIC (S. aureus ATCC 33591; ATCC33591, passage 30, selection group DAP + VAN) of 4 µg/mL.
